Experimental data published in patent US10722516B2, “Use of landiolol hydrochloride in the long-term treatment of tachyarrhythmias” (AOP Orphan Pharmaceuticals AG, priority 2013, dated 2020).
Structures can show the parent of a compound that is named as a salt.

System: healthy volunteers
Assay: 24 h long-term infusion study, AOP LDLL600 against esmolol: heart rate
Format: in vivo, human
Description: A single centre prospective, randomized, double blind, crossover, pharmacokinetic, safety and tolerability study to compare long-term infusion administration of AOP LDLL600 against esmolol in healthy volunteers was performed.
Landiolol hydrochloride lyophilized (LDLL600) comprises 600 mg landiolol hydrochloride, 600 mg mannitol, pH 6.5. The primary packing of LDLL600 is 50 ml vial, the reconstitution volume is 50 ml and the final product concentration is 12 mg/mL landiolol HCl.
12 subjects were administered AOP LDLL600 or Esmolol (Brevibloc, 2500 mg/250 ml) in 1:1 ratio in double-blind, randomized, cross-over setting. PK, systemic cardiovascular and local tolerability and safety of the 24 h-long term infusions of three dose levels of both IMPs during each treatment period were assessed.
Landiolol was infused over 24 h in a dose of 10 μg/KG/min (2 hrs), followed by 20 μg/KG/min (2 hrs), followed by 40 μg/KG/min for 20 hrs.
Dosing algorithm was body weight divided by 20, 10 and 5 in ml/h giving 10, 20 and 40 μg/KG/min at a concentration of 12 mg/ml. No severe adverse drug reactions, mild local reactions, 1 severe local reaction (Esmolol High Dose).
Landiolol was infused over 24 h in a dose of 10, 20 and 40 μg/KG/min, i.e. 10 μg/KG/min landiolol were administered for 2 hrs, followed by 2 hrs administration of 20 μg/KG/min and further followed by 20 hrs administration of 40 μg/KG/min.
Post-infusion follow up measurements were performed immediately after 20 hrs administration study, i.e. 2, 4 min etc. after stop of landiolol administration.

[1] = FU Predose (end of 20 h HD, infusion stop)
[2] = FU post-infusion, 20 h 2 min (2 min after infusion stop)
[3] = FU post-infusion, 20 h 4 min (4 min after infusion stop)
[4] = FU post-infusion, 20 h 6 min (6 min after infusion stop)
[5] = FU post-infusion, 20 h 8 min (8 min after infusion stop)
[6] = FU post-infusion, 20 h 12 min (12 min after infusion stop)
[7] = FU post-infusion, 20 h 16 min (16 min after infusion stop)
[8] = FU post-infusion, 20 h 20 min (20 min after infusion stop)
[9] = FU post-infusion, 20 h 30 min (30 min after infusion stop)
[10] = FU post-infusion, 21 h (1 h after infusion stop)
[11] = FU post-infusion, 22 h (2 h after infusion stop)
[12] = FU post-infusion, 24 h (4 h after infusion stop)
[13] = FU post-infusion, 26 h (6 h after infusion stop)
[14] = HD infusion (landiolol 40, esmolol 200 μg/kg/min, after LD and MD), 2 min
[15] = HD infusion (landiolol 40, esmolol 200 μg/kg/min, after LD and MD), 3 min
[16] = HD infusion (landiolol 40, esmolol 200 μg/kg/min, after LD and MD), 4 min
[17] = HD infusion (landiolol 40, esmolol 200 μg/kg/min, after LD and MD), 6 min
[18] = HD infusion (landiolol 40, esmolol 200 μg/kg/min, after LD and MD), 8 min
[19] = HD infusion (landiolol 40, esmolol 200 μg/kg/min, after LD and MD), 12 min
[20] = HD infusion (landiolol 40, esmolol 200 μg/kg/min, after LD and MD), 16 min
[21] = HD infusion (landiolol 40, esmolol 200 μg/kg/min, after LD and MD), 20 min
[22] = HD infusion (landiolol 40, esmolol 200 μg/kg/min, after LD and MD), 30 min
[23] = HD infusion (landiolol 40, esmolol 200 μg/kg/min, after LD and MD), 60 min
[24] = HD infusion (landiolol 40, esmolol 200 μg/kg/min, after LD and MD), 90 min
[25] = HD infusion (landiolol 40, esmolol 200 μg/kg/min, after LD and MD), 2 h
[26] = HD infusion (landiolol 40, esmolol 200 μg/kg/min, after LD and MD), 4 h
[27] = HD infusion (landiolol 40, esmolol 200 μg/kg/min, after LD and MD), 8 h
[28] = HD infusion (landiolol 40, esmolol 200 μg/kg/min, after LD and MD), 12 h
[29] = HD infusion (landiolol 40, esmolol 200 μg/kg/min, after LD and MD), 16 h
[30] = HD infusion (landiolol 40, esmolol 200 μg/kg/min, after LD and MD), 20 h (end)
[31] = LD infusion (landiolol 10, esmolol 50 μg/kg/min), 2 min
[32] = LD infusion (landiolol 10, esmolol 50 μg/kg/min), 3 min
[33] = LD infusion (landiolol 10, esmolol 50 μg/kg/min), 4 min

With `COC(=O)CCc1ccc(OCC(O)CNC(C)C)cc1` (stereo not drawn) [Esmolol, Esmolol hydrochloride] the “change of heart rate from predose, Mean (SD)” value (from here on “change of heart rate … (SD)”) [1] was 1.5 (9.05) beats per minute, the “heart rate, Mean (SD)” value [1] was 69.1 (6.40) beats per minute and the “change of heart rate … (SD)” value [2] was 1.4 (7.57) beats per minute. For the same compound, the “heart rate, Mean (SD)” value [2] was 69.0 (4.88) beats per minute, the “change of heart rate … (SD)” value [3] was 3.6 (8.77) beats per minute and the “heart rate, Mean (SD)” value [3] was 71.3 (7.04) beats per minute. For the same compound, the “change of heart rate … (SD)” value [4] was 5.4 (8.11) beats per minute, the “heart rate, Mean (SD)” value [4] was 73.1 (7.89) beats per minute and the “change of heart rate … (SD)” value [5] was 5.4 (8.10) beats per minute. For the same compound, the “heart rate, Mean (SD)” value [5] was 73.1 (7.57) beats per minute, the “change of heart rate … (SD)” value [6] was 7.1 (8.43) beats per minute and the “heart rate, Mean (SD)” value [6] was 74.7 (8.62) beats per minute. The “change of heart rate … (SD)” value [7] was 6.4 (7.44) beats per minute, the “heart rate, Mean (SD)” value [7] was 74.0 (7.99) beats per minute and the “change of heart rate … (SD)” value [8] was 6.8 (7.17) beats per minute. For the same compound, the “heart rate, Mean (SD)” value [8] was 74.4 (7.04) beats per minute, the “change of heart rate … (SD)” value [9] was 9.1 (8.04) beats per minute and the “heart rate, Mean (SD)” value [9] was 76.8 (8.51) beats per minute. For the same compound, the “change of heart rate … (SD)” value [10] was 5.5 (8.15) beats per minute, the “heart rate, Mean (SD)” value [10] was 73.1 (7.50) beats per minute and the “change of heart rate … (SD)” value [11] was 2.6 (8.02) beats per minute. The “heart rate, Mean (SD)” value [11] was 70.2 (7.06) beats per minute, the “change of heart rate … (SD)” value [12] was 4.5 (9.51) beats per minute and the “heart rate, Mean (SD)” value [12] was 72.1 (7.37) beats per minute. The “change of heart rate … (SD)” value [13] was 5.1 (10.85) beats per minute, the “heart rate, Mean (SD)” value [13] was 72.8 (9.74) beats per minute and the “change of heart rate … (SD)” value (HD Predose (end of 2 h MD)) was −3.9 (7.75) beats per minute. For the same compound, the “heart rate, Mean (SD)” value (HD Predose (end of 2 h MD)) was 63.7 (4.86) beats per minute, the “change of heart rate … (SD)” value [14] was −2.5 (8.96) beats per minute and the “heart rate, Mean (SD)” value [14] was 65.1 (7.10) beats per minute. For the same compound, the “change of heart rate … (SD)” value [15] was −3.2 (8.99) beats per minute, the “heart rate, Mean (SD)” value [15] was 64.4 (4.38) beats per minute and the “change of heart rate … (SD)” value [16] was −3.1 (8.16) beats per minute. For the same compound, the “heart rate, Mean (SD)” value [16] was 64.5 (4.74) beats per minute, the “change of heart rate … (SD)” value [17] was −2.8 (8.97) beats per minute and the “heart rate, Mean (SD)” value [17] was 64.9 (4.29) beats per minute. The “change of heart rate … (SD)” value [18] was −3.7 (10.45) beats per minute, the “heart rate, Mean (SD)” value [18] was 63.9 (7.14) beats per minute and the “change of heart rate … (SD)” value [19] was −2.9 (9.19) beats per minute. For the same compound, the “heart rate, Mean (SD)” value [19] was 64.8 (4.39) beats per minute, the “change of heart rate … (SD)” value [20] was −3.3 (8.32) beats per minute and the “heart rate, Mean (SD)” value [20] was 64.4 (7.16) beats per minute. For the same compound, the “change of heart rate … (SD)” value [21] was −0.4 (11.69) beats per minute, the “heart rate, Mean (SD)” value [21] was 67.3 (7.26) beats per minute and the “change of heart rate … (SD)” value [22] was −2.3 (9.26) beats per minute. The “heart rate, Mean (SD)” value [22] was 65.4 (5.69) beats per minute, the “change of heart rate … (SD)” value [23] was 4.9 (9.60) beats per minute and the “heart rate, Mean (SD)” value [23] was 72.6 (6.64) beats per minute. For the same compound, the “change of heart rate … (SD)” value [24] was 5.9 (8.95) beats per minute, the “heart rate, Mean (SD)” value [24] was 73.6 (4.57) beats per minute and the “change of heart rate … (SD)” value [25] was 6.2 (9.32) beats per minute. For the same compound, the “heart rate, Mean (SD)” value [25] was 73.9 (4.55) beats per minute, the “change of heart rate … (SD)” value [26] was 2.8 (9.60) beats per minute and the “heart rate, Mean (SD)” value [26] was 70.4 (5.03) beats per minute. The “change of heart rate … (SD)” value [27] was 0.3 (10.34) beats per minute, the “heart rate, Mean (SD)” value [27] was 67.9 (5.95) beats per minute and the “change of heart rate … (SD)” value [28] was 0.7 (10.94) beats per minute. The “heart rate, Mean (SD)” value [28] was 68.4 (8.30) beats per minute, the “change of heart rate … (SD)” value [29] was 0.3 (9.27) beats per minute and the “heart rate, Mean (SD)” value [29] was 67.9 (7.49) beats per minute. For the same compound, the “change of heart rate … (SD)” value [30] was 1.5 (9.05) beats per minute, the “heart rate, Mean (SD)” value [30] was 69.1 (6.40) beats per minute and the “change of heart rate … (SD)” value [31] was −0.7 (6.22) beats per minute. The “heart rate, Mean (SD)” value [31] was 66.9 (6.28) beats per minute, the “change of heart rate … (SD)” value [32] was −1.9 (5.34) beats per minute and the “heart rate, Mean (SD)” value [32] was 65.7 (4.91) beats per minute. For the same compound, the “change of heart rate … (SD)” value [33] was −2.1 (7.64) beats per minute, the “heart rate, Mean (SD)” value [33] was 65.6 (6.44) beats per minute and the “change of heart rate … (SD)” value (LD infusion (landiolol 10, esmolol 50 μg/kg/min), 6 min) was −1.6 (5.96) beats per minute.
